Laboratory results taken from patent publication US5994334A, “Androgen synthesis inhibitors” (priority 1997, dated 1999).
“Also recorded” adds a separate entry of the source. Like-named read-outs stand apart in the source and are kept apart here.

Experiments:
[1] = molecular target: T1, Human Prostatic 5α-Reductase (Homo sapiens, UniProt P31213); assay: Inhibition of human prostatic 5α-reductase (prostatic microsomes, [3H]testosterone); details: for inhibition at 0.1 µM: read-out: % Inhibition of 5α-reductase, [I] 100 nM
T1 sequence (P31213 1-254): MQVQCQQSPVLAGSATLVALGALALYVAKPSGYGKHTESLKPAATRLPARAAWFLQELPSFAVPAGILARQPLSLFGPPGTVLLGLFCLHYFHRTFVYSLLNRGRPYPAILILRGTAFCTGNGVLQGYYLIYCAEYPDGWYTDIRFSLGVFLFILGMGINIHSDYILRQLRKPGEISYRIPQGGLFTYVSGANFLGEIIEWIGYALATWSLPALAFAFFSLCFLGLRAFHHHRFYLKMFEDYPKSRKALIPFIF
Procedure: The 5α-reductase assay is performed by incubating human prostatic microsomes (approx. 0.6 mg protein in 0.5 ml phosphate buffer) with [7-^3 H]testosterone (10 mM. 6×10^5 dpm) with a NADPH generating system (NADP 0.65 mM; glucose-6-phosphate 7.1 mM; glucose-6-phosphate dehydrogenase 2.5 IU in 100 μl phosphate buffer) and candidate inhibitors at concentrations of 10 nM and 100 nM under oxygen for 30 min at 37° C. […] The steroids are extracted with ether and separated by chromatography on TLC (chloroform:ether 80:20). […] The steroids are scraped from the plate and radioactivity measured.

[2] = molecular target: T2, Human Testicular C17,20-lyase (Homo sapiens, UniProt P05093); assay: Inhibition of human testicular C17,20-lyase (pregnenolone substrate, testicular microsomes); type: biochemical
T2 construct: incubating human testicular microsomes; from tissue; host or cells: human testis, microsomes
T2 sequence (P05093 1-508): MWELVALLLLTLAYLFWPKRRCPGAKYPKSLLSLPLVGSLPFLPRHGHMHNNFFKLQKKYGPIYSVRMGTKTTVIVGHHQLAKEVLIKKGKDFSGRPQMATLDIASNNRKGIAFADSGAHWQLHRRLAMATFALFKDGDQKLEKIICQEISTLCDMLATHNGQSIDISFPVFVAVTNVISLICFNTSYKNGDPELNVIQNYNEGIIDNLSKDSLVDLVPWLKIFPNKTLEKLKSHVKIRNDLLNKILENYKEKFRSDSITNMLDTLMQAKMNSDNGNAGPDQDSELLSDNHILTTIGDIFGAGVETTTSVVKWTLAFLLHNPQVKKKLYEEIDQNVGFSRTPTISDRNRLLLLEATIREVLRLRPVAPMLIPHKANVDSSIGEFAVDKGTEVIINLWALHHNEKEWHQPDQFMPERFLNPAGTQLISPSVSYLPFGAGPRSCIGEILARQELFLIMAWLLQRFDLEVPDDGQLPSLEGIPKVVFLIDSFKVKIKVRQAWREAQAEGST
Procedure: (§1) The conversion of radiolabeled pregnenolone to 17α-hydroxypregnenolone and DHEA by 17α-hydroxylase/C17,20 -lyase was measured by incubating human testicular microsomes with different concentration of test compounds. Reverse phase HPLC was used to separate and accurately quantify the amount of substrate and metabolites. The 17α-hydroxylase and C17,20 -lyase activities were calculated separately. The activity of 17α-hydroxylase was calculated from the conversion of pregnenolone to 17α-hydroxypregnenolone and DHEA and the activity of C17,20 -lyase was based on the conversion of pregnenolone to DHEA. Although 17α-hydroxypregnenolone is the substrate converted to DHEA by C17,20 -lyase, it has been reported that this 17α-hydroxy intermediate is not released from the enzyme binding site during conversion (Nakajin et al., 1981a,b). Also, there are species differences in substrate requirements. Pregnenolone is the natural substrate rather than progesterone for human testicular 17α-hydroxylase and C17,20 -lyase. Therefore, pregnenolone was used as substrate for measuring the activity of this enzyme complex.

[3] = molecular target: T3, human 17α-hydroxylase/C17,20-lyase (Homo sapiens, UniProt P05093); assay: Inhibition of human testicular 17α-hydroxylase/C17,20-lyase (enzyme complex as a whole); type: biochemical; details: for inhibition of 17α-hydroxylase/C17,20-lyase (in words): NI = no inhibition
T3 construct: incubating human testicular microsomes; from tissue; host or cells: human testis, microsomes
T3 sequence (P05093 1-508): T2 sequence (P05093 1-508)
Procedure: as §1

[4] = molecular target: T4, Human Testicular 17α-Hydroxylase (Homo sapiens, UniProt P05093); assay: Inhibition of human testicular 17α-hydroxylase (pregnenolone substrate, testicular microsomes); type: biochemical
T4 construct: incubating human testicular microsomes; from tissue; host or cells: human testis, microsomes
T4 sequence (P05093 1-508): T2 sequence (P05093 1-508)
Procedure: as §1

[5] = Table 1, NI = no inhibition, CI = complete inhibition, read-out: IC50 C17,20 lyase
[6] = Table 1, NI = no inhibition, read-out: IC50 17α-OHase

`C[C@]12CC[C@H]3[C@@H](CC=C4C[C@@H](O)CC[C@@]43C)[C@@H]1CC[C@@H]2[C@@]1(C)CO1` [Compound I-8] was tested, and the inhibition at 0.01 µM ([1]; read-out: % Inhibition of 5α-reductase, [I] 10 nM) was 11.8%, the inhibition at 0.1 µM [1] was 16.3% and the IC50 [2, 5] was 140 nM. The “inhibition of 17α-hydroxylase/C17,20-lyase (in words)” value [3] was “significant inhibition” and the IC50 [4, 6] was 110 nM.

In the case of `C[C@@H](O)[C@H]1CC[C@H]2[C@@H]3CC=C4C[C@@H](O)CC[C@]4(C)[C@H]3CC[C@]12C` [Compound I-20], the “inhibition of 5α-reductase (in words)” value ([1]; NI = no inhibition) is reported as “neither showed activity against 5α-reductase”, the IC50 ([2]; IC50 C17,20 lyase) is reported as 190 nM and the “inhibition of 17α-hydroxylase/C17,20-lyase (in words)” value [3] is reported as “potent inhibition”. It also gave an IC50 ([4]; IC50 17α-OHase) of 180 nM.

In the case of `CN(C=O)[C@H]1CC[C@H]2[C@@H]3CCC4=CC(=O)CC[C@]4(C)[C@H]3CC[C@]12C` [Compound I-40], the IC50 ([1]; IC50 5α-reductase, Table 2) is reported as 150 nM, the IC50 [2, 5] is reported as 680 nM and the “fold lower inhibition than I-16” value ([3]; vs I-16) is reported as “approximately 4 fold”. It also gave an IC50 [4, 6] of 760 nM.

For `CC(=NO)[C@H]1CC[C@H]2[C@@H]3CCC4=CC(=NO)CC[C@]4(C)[C@H]3CC[C@]12C` [Compound I-42], the “inhibition of 5α-reductase (in words)” value ([1]; NI = no inhibition) was “decreased activity”, the IC50 ([1]; read-out: IC50 5α-reductase, Table 2) was 2060 nM and the IC50 [2, 5] was 220 nM. For the same molecule, the “inhibition of 17α-hydroxylase/C17,20-lyase (in words)” value [3] was “decreased activity” and the IC50 [4, 6] was 210 nM.

For `C[C@H](c1c[nH]cn1)[C@H]1CC[C@H]2[C@@H]3CCC4=CC(=O)CC[C@]4(C)[C@H]3CC[C@]12C` [Compound I-45], the IC50 [2, 5] was > 30000 nM, the “inhibition of 17α-hydroxylase/C17,20-lyase (in words)” value [3] was “did not show any activity” and the IC50 [4, 6] was > 30000 nM.

`C[C@]12CC[C@H]3[C@@H](CC=C4C[C@@H](O)CC[C@@]43C)[C@@H]1CC[C@@H]2c1ncc[nH]1` [Compound L-1] was tested, and the inhibition at 0.1 µM ([2]; 100 nM, second figure of pair, read-out: % Inhibition C17,20-lyase, [I] = 100 nM) was 73.9%, the inhibition at 0.4 µM ([2]; 400 nM, second figure of pair, read-out: % Inhibition C17,20-lyase, [I] = 400 nM) was 100% and the “inhibition of 17α-hydroxylase/C17,20-lyase (in words)” value [3] was “poor inhibition of 17α-hydroxylase/C17,20 -lyase”. For the same molecule, the inhibition at 0.1 µM ([4]; 100 nM, first figure of pair, read-out: % Inhibition 17α-hydroxylase, [I] = 100 nM) was 22.8% and the inhibition at 0.4 µM ([4]; 400 nM, first figure of pair, read-out: % Inhibition 17α-hydroxylase, [I] = 400 nM) was 23.7%.

`CC(=NO)C1=CC[C@H]2[C@@H]3CCC4=CC(=O)CC[C@]4(C)[C@H]3CC[C@]12C` [Compound L-2, 16-dehydroprogesterone-20-oxime] was tested, and the IC50 ([1]; IC50 5α-reductase) was 52.5 nM, the IC50 ([1]; IC50 5α-reductase, Table 2) was 52 nM and the IC50 ([1]; IC50 5α-reductase, Table 3, NI = no inhibition) was 52.5 nM. The “inhibition of 5α-reductase (in words)” value ([1]; NI = no inhibition) was “potent inhibition of 5α-reductase; also recorded: potent inhibitor of human 5α-reductase”, the inhibition at 0.1 µM [1] was 45.5% and the “times less potent than finasteride (5α-reductase)” value ([1]; vs finasteride) was 4-6 times. For the same molecule, the IC50 ([2]; second figure of pair, read-out: IC50 C17,20-lyase) was 5 nM, the “inhibition of 17α-hydroxylase/C17,20-lyase (in words)” value [3] was “potent inhibitors of both enzymes” and the “stronger activity than I-5 against 17α-hydroxylase/C17,20-lyase” value ([3]; vs I-5) was “twofold stronger activity”. The “times more potent than ketoconazole” value ([3]; vs ketoconazole) was 10-50 times, the IC50 [4, 6] was 8.7 nM and the IC50 ([4]; Table 3, first figure of 17α-hydroxylase/lyase pair, read-out: IC50 17α-hydroxylase) was 8.65 nM. The IC50 ([4]; first figure of pair, read-out: IC50 17α-hydroxylase) was 6 nM.
